Results on three compounds are retold here after BindingDB's records for doi:10.1074/jbc.M707463200 (National Cancer Institute-Bethesda, 2008).

What is called Ki is the equilibrium dissociation constant of an inhibitor or competing ligand from its target.

Test in all cases: Binding Assay
Conditions in all cases: pH 7.4; 18 °C

For assay [1], the target named is Protein kinase C alpha type (Homo sapiens, UniProt P17252). Here is the method:
(§1) [3H]PDBu binding to the C1 domains of MRCK alpha/beta and PKC alpha/delta was measured using the polyethylene glycol precipitation assay.

For assay [2], the target named is Serine/threonine-protein kinase MRCK beta (Homo sapiens, UniProt Q9Y5S2). Here is the method: as §1
Serine/threonine-protein kinase MRCK beta, sequence (Q9Y5S2 whole entry): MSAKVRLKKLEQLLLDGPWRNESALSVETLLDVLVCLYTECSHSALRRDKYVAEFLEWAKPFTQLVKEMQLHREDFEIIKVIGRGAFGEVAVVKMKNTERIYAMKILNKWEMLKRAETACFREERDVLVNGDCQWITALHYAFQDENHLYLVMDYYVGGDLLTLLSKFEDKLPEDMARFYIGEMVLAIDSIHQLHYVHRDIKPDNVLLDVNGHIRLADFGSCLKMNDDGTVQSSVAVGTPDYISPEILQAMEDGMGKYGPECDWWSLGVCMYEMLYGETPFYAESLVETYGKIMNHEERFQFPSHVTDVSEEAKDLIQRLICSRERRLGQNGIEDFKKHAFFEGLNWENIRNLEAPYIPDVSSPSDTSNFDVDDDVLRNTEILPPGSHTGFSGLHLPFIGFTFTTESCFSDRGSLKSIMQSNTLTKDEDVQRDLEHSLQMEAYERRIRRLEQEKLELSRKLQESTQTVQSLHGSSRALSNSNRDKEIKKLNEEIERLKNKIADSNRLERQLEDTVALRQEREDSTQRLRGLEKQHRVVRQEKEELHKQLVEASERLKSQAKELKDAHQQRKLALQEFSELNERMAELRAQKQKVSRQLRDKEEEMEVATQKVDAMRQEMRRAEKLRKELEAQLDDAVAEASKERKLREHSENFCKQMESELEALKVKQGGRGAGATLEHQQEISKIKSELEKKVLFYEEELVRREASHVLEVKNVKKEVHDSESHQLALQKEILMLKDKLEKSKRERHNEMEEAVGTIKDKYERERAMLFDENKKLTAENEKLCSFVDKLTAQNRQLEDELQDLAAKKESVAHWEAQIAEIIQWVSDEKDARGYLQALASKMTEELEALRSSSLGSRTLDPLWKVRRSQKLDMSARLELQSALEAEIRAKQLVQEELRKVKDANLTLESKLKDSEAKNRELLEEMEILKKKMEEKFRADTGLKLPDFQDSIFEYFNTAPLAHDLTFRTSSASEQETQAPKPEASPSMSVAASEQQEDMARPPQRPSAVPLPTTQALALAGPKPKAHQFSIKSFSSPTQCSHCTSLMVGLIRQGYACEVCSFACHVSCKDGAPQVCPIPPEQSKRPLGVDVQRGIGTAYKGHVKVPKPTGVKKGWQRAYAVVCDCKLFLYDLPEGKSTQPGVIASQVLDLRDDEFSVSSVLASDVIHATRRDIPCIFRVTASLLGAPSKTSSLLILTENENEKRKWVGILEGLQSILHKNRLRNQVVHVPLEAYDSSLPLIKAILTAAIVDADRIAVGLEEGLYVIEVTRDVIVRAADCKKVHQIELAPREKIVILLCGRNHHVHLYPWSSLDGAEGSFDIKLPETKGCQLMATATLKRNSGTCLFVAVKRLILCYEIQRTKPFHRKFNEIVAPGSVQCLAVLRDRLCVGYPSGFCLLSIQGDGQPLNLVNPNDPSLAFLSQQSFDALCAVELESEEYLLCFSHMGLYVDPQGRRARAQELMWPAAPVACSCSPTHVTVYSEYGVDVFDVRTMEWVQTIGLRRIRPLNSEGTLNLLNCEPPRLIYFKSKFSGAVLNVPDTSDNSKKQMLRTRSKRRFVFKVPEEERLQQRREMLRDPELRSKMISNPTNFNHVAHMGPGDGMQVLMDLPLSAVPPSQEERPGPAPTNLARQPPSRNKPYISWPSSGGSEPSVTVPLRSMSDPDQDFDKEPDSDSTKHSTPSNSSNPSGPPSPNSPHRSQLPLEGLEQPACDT
Assay [3] concerns the target Serine/threonine-protein kinase MRCK alpha (Homo sapiens, UniProt Q5VT25). Here is the method:
as §1

The target in assay [4] is Protein kinase C delta type (Homo sapiens, UniProt Q05655). Here is the method:
as §1

Serine/threonine-protein kinase MRCK alpha, sequence (Q5VT25 whole entry): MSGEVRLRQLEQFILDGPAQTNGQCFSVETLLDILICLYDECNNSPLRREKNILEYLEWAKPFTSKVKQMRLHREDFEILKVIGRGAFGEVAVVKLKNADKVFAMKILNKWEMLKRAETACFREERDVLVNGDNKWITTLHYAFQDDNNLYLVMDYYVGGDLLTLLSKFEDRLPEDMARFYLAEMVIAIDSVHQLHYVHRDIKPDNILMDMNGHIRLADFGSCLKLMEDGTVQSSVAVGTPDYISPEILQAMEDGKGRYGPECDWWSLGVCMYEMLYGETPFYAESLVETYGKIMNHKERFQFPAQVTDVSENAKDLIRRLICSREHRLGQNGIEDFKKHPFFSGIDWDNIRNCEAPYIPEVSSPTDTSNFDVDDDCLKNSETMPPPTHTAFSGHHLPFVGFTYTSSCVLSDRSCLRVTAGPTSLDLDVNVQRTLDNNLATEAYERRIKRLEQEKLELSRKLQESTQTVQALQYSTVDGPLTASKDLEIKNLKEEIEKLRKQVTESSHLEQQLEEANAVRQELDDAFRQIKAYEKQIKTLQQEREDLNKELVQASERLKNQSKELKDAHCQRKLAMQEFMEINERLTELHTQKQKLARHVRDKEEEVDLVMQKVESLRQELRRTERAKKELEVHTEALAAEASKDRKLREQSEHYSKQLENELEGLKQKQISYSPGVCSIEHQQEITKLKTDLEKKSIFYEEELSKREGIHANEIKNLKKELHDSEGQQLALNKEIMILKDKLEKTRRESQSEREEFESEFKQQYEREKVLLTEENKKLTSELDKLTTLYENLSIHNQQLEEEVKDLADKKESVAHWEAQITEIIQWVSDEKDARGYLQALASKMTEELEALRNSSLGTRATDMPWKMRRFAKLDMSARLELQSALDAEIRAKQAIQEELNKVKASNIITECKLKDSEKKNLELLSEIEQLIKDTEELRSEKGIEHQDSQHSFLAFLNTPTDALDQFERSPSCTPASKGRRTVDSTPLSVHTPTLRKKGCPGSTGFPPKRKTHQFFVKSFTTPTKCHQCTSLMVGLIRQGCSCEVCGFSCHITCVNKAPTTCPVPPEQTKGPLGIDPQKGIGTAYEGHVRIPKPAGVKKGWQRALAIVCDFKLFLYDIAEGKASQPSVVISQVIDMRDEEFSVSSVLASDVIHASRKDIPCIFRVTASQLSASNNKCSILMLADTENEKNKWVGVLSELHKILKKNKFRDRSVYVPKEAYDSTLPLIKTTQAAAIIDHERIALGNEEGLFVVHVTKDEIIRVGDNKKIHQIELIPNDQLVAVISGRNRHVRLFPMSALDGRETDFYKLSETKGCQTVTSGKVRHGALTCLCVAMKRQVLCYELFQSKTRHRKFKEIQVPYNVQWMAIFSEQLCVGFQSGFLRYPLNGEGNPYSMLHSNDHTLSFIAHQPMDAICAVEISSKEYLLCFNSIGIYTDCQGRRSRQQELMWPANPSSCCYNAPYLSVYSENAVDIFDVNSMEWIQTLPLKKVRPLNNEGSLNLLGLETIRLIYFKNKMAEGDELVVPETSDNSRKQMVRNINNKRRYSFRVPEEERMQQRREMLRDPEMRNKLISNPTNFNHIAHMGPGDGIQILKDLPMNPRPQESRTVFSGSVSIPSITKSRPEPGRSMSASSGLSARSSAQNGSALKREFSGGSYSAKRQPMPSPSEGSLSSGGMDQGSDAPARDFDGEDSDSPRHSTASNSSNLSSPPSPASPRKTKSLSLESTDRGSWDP
Protein kinase C delta type, sequence (Q05655 whole entry): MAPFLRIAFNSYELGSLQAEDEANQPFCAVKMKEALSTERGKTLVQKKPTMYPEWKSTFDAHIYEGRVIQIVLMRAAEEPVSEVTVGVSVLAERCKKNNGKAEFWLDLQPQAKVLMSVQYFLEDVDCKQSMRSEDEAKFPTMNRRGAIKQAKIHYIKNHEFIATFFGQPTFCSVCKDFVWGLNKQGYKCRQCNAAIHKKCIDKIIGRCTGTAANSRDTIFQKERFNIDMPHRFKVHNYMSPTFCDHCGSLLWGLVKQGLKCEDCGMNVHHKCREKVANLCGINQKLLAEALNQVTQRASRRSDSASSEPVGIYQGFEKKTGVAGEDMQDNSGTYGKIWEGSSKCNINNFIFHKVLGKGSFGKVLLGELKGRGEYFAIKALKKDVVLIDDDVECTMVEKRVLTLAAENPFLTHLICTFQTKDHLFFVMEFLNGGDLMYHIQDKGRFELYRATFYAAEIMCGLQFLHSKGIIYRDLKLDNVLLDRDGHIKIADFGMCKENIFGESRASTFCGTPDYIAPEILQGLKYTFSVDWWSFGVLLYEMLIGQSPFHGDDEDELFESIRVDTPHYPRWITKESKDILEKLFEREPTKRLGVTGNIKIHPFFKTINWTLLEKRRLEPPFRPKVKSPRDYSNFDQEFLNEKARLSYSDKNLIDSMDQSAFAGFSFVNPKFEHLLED

Consider `CC(C)CC(C/C=C1/CC(CO)(COC(=O)C(C)(C)C)OC1=O)CC(C)C` (centres undefined) [DAG-lactone (HK-434)], for which the Ki in assay [1] was determined as 402 nM; in assay [2], 1070 nM; in assay [3], 1030 nM.

For the compound `CN(C)c1ccc(/C=C2/CC(CO)(COC(=O)c3ccc([N+](=O)[O-])cc3)OC2=O)cc1` (centres undefined) [DAG-lactone (130C045)], the inhibition constant (Ki) amounted to 4200 nM in assay [1], 26000 nM in assay [2], 22600 nM in assay [3] and 1.54 nM in assay [4].

For the compound `CCCCCCCC(=O)OC[C@H](CO)OC(=O)CCCCCCC`, the inhibition constant Ki in assay [2] was found to be 6960 nM; in assay [3], 2820 nM.
